From patent US8389552B2, “(S)-6-(2-(4-(cyclobutylsulfonyl)-1H-imidazol-1-yl)-3-cyclopentylpropanamido)nicotinic acid useful as a glucokinase activator” (Pfizer Inc., priority 2009, dated 2013) come the findings set out here.

The target in the assay is T1, Full-length glucokinase (beta cell isoform) (Homo sapiens, UniProt P35557).
T1 construct: Full-length glucokinase (beta cell isoform) was His-tagged at N-terminus; His tag (N); made in house; host or cells: E. coli BL21(DE3), pBCGK vector
T1 sequence (P35557 1-465): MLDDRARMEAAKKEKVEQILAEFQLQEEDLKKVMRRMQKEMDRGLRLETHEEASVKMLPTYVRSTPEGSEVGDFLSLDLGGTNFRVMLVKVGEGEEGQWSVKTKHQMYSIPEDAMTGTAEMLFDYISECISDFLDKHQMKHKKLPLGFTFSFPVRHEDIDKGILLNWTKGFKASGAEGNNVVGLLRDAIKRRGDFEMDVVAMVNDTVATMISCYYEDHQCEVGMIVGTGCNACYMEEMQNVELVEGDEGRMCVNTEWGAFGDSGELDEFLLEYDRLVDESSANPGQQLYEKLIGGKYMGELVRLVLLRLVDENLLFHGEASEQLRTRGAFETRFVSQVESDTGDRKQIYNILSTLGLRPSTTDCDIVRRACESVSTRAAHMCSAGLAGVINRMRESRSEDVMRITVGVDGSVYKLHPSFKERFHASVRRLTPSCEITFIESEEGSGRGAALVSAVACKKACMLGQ
Briefly: Glucokinase activation assay (PK/LDH-coupled, NADH depletion at 340 nm). Format: biochemical. The conditions noted are these: 5 mM glucose, single value or range where N>1; for EC50: 2.5 mM ATP, pH 7.1, room temperature, read-out: EC50; for Emax: % max activation = (Va/Vo−1)×100 from fit, pH 7.1, read-out: Maximum Activation (%). The method, then:
Full-length glucokinase (beta cell isoform) was His-tagged at N-terminus and purified by a Ni column followed by size exclusion chromatography. A 320 mL column was packed in house using Superdex75 (Amersham Pharmacia, Carlsbad, Calif.) preparation grade resin. Glucose was obtained from Calbiochem (San Diego, Calif.) and other reagents were purchased from Sigma-Aldrich (St. Louis, Mo.).
All assays were performed in a Corning 384-well plate using Spectramax PLUS spectrophotometer (Molecular Devices, Sunnyvale, Calif.) at room temperature. The final assay volume was 40 ∥L. The buffer conditions used in this assay were as follows: 50 mM HEPES, 5 mM glucose, 2.5 mM ATP, 3.5 mM MgCl2, 0.7 mM NADH, 2 mM dithiothreitol, 1 unit/mL pyruvate kinase/lactate dehydrogenase (PK/LDH), 0.2 mM phosphoenolpyruvate, and 25 mM KCl. The buffer pH was 7.1. The test compound in dimethylsulfoxide solution was added to the buffer and mixed by a plate shaker for 7.5 minutes. The final concentration of dimethylsulfoxide introduced into the assay was 0.25%.
Glucokinase was added to the buffer mixture to initiate the reaction in the presence and absence of compound. The reaction was monitored by absorbance at 340 nm due to the depletion of NADH. The initial reaction velocity was measured by the slope of a linear time course of 0-300 seconds. The percentage of maximum activation was calculated by the following equation: % Maximum Activation=(Va/Vo−1)×100; wherein each of Va and Vo is defined as the initial reaction velocity in the presence and absence of the tested compound, respectively.
The glucokinase activities were measured as a function of compound concentrations.

SMILES strings stand for the structures.

The term EC50 denotes the concentration that produces a half-maximal response. `CCS(=O)(=O)c1cnn([C@@H](CC2CCCC2)C(=O)Nc2cnc(C)cn2)c1` [Example 22, (S)-3-cyclopentyl-2-(4-(ethylsulfonyl)-1H-pyrazol-1-yl)-N-(5-methylpyrazin-2-yl)propanamide]: the concentration giving a half-maximal response (EC50) turned out to be 25 µM and the Emax stood at 144%.

For `CS(=O)(=O)c1cn([C@@H](CC2CCCC2)C(=O)Nc2ccc(C(=O)O)cn2)cn1` [Example 38, (S)-6-(3-cyclopentyl-2-(4-(methylsulfonyl)-1H-imidazol-1-yl)propanamido)nicotinic acid], the EC50 is 2.3 µM and the Emax worked out at 160%.

For `Cn1ccc(NC(=O)[C@H](CC2CCCC2)n2cc(S(C)(=O)=O)cn2)n1` [Example 9, (S)-3-cyclopentyl-N-(1-methyl-1H-pyrazol-3-yl)-2-(4-(methylsulfonyl)-1H-pyrazol-1-yl)propanamide], the EC50 is 55 µM and the Emax turned out to be 174%.

`Cc1ccc(NC(=O)[C@H](CC2CCCC2)n2cc(C(F)(F)F)nc2C)nc1` [Example 91, (S)-3-cyclopentyl-2-(2-methyl-4-(trifluoromethyl)-1H-imidazol-1-yl)-N-(5-methylpyridin-2-yl)propanamide]: the EC50 amounted to 0.4 µM and the Emax is 120%.

`CCS(=O)(=O)c1cn([C@@H](CC2CCCC2)C(=O)Nc2cnc(C)cn2)cn1` [Example 33, (S)-3-cyclopentyl-2-(4-(ethylsulfonyl)-1H-imidazol-1-yl)-N-(5-methylpyrazin-2-yl)propanamide]: the EC50 was 16 µM and the Emax stood at 136%.

Regarding `CCS(=O)(=O)c1cnn([C@@H](CC2CCCC2)C(=O)Nc2ccn(C)n2)c1` [Example 20, (S)-3-cyclopentyl-2-(4-(ethylsulfonyl)-1H-pyrazol-1-yl)-N-(1-methyl-1H-pyrazol-3-yl)propanamide], the EC50 turned out to be 7.2 µM and the Emax is 80%.

As for `Cn1ccc(NC(=O)[C@H](CC2CCCC2)n2nnc(S(C)(=O)=O)n2)n1` [Example 79, (S)-3-cyclopentyl-N-(1-methyl-1H-pyrazol-3-yl)-2-(5-(methylsulfonyl)-2H-tetrazol-2-yl)propanamide], the concentration for a half-maximal effect (EC50) was 40 µM and the Emax worked out at 99%.

Consider `Cc1cnc(NC(=O)[C@H](CC2CCCC2)n2cc(S(=O)(=O)C(C)C)cn2)cn1` [Example 6, (S)-3-cyclopentyl-2-(4-(isopropylsulfonyl)-1H-pyrazol-1-yl)-N-(5-methylpyrazin-2-yl)propanamide], for which the EC50 fell in the range of 4.8 to 5.6 µM and the Emax was 70 to 76%.

For `Cc1cnc(NC(=O)[C@H](CC2CCCC2)n2cnc(S(C)(=O)=O)n2)cn1` [Example 27, (S)-3-cyclopentyl-N-(5-methylpyrazin-2-yl)-2-(3-(methylsulfonyl)-1H-1,2,4-triazol-1-yl)propanamide], the half-maximal effective concentration (EC50) worked out at 22 µM and the Emax is 120%.

Turning to `COc1ccc2nc(NC(=O)[C@H](CC3CCOCC3)n3cnc(C(F)(F)F)c3)sc2n1` [Example 78, (S)—N-(5-methoxythiazolo[5,4-b]pyridin-2-yl)-3-(tetrahydro-2H-pyran-4-yl)-2-(4-(trifluoromethyl)-1H-imidazol-1-yl)propanamide], the EC50 was in the range of 4.2 to 4.4 µM and the Emax fell in the range of 109 to 114%.

For the compound `CS(=O)(=O)c1cnn([C@@H](CC2CCCC2)C(=O)Nc2ccn(Cc3ccccc3)n2)c1` [Example 12, (S)—N-(1-benzyl-1H-pyrazol-3-yl)-3-cyclopentyl-2-(4-(methylsulfonyl)-1H-pyrazol-1-yl)propanamide], the half-maximal effective concentration (EC50) is > 100 µM.

On to `CS(=O)(=O)c1cnn([C@@H](CC2CCCC2)C(=O)Nc2ccc(C(=O)O)cn2)c1` [Example 24, (S)-6-(3-cyclopentyl-2-(4-(methylsulfonyl)-1H-pyrazol-1-yl)propanamido)nicotinic acid], for which the EC50 amounted to 7 µM and the Emax was 145%.
